From patent publication US20260083701A1, “COMPOSITIONS, FORMULATIONS, AND METHODS FOR TREATMENT OF INFLAMMATORY CONDITIONS” (Oddity Labs, LLC, priority 2023, published 2026)

Assays:
[1] = system: IL-13; test: Functional Th2-blocking activity: IL-13 expression in primary human Th2 cells (intracellular flow cytometry); format: cell-based; settings: for Expression of Cytokine following Stimulation (% X Positive among CD4+ T cells) IL-13: 3 days co-culture with compound, PMA/ionomycin stimulation 6 hours; for % Normalized Reduction of Cytokine Expression From Baseline in CD4+ T Cells IL-13: normalized against vehicle control (water), 3 days co-culture, PMA/ionomycin 6 hours
Text: (§1) To produce T helper 2 (Th2) cells, peripheral blood mononuclear cells (PBMCs) were harvested from healthy donor leukopaks using Ficoll gradients. Naive CD4+ T cells were further isolated, then activated using TransAct or Dynabeads (depending on the donor). CD4+ T cells were activated for two days in the presence of low dose IL-2 (30 IU/mL) in X-VIVO-15 media containing 5% human AB serum (activation cycle). On the second day, the media was exchanged and supplemented with interleukin 4 (IL-4) (20 ng/mL), anti-IFN-gamma antibody (1 μg/mL), and interleukin 2 (IL-2) (rest cycle). The cells were cultured for an additional five days then evaluated for Prostaglandin D2 receptor 2 (DP2 or CRTH2) expression and IL-4 and interleukin 13 (IL-13) expression following phorbol myristate acetate (PMA)/ionomycin stimulation. If the expression of CRTH2 was >50%, the cells were frozen and used in Th2 IL-4/IL-13 bioactivity assays. If the expression of CRTH2 <50%, then the cells were restimulated using TransAct (or Dynabeads) and maintained on similar cycles of activation (2 days) and rest (5 days), until the expression of CRTH2 exceeded 50%. Typically, no more than 4 cycles are needed before the Th2 cells may be harvested and frozen.
(§2) For testing the ability of a compound or salt of the present disclosure to reduce the expression of IL-4 and IL-13 was tested in primary human Th2 cells, the abovementioned cells were thawed, then cultured for one day in IL-2 containing media. The Th2 cells were treated with compounds added at varying concentrations for three days, after which, the cells were washed, and stimulated with PMA/ionomycin for 6 hrs prior to readabout via intracellular flow cytometry.
(§3) The ability of a compound or salt of the present disclosure to reduce the expression of IL-4 and IL-13 was tested in primary human Th2 cells. Naive, primary human CD4+ T cells were isolated from healthy donors and differentiated into Th2 cells using a combination of IL-4 cytokine and anti-IFN-gamma antibody, based on a modified protocol from Scott et al (Activation of Th2 cells downregulates CRTh2 through an NFAT1 mediated mechanism. PLoS One. 2018 Jul. 3; 13(7):e0199156). Th2 cells were CRTH2+ and expressed IL-4 and IL-13 following PMA/ionomycin stimulation. Prior to PMA/ionomycin stimulation, Th2 cells were co-cultured with a compound or salt of the present disclosure for 3 days and then stimulated for 6 hours. Intracellular flow cytometry was performed to investigate the expression of IL-4 and IL-13 among stimulated CD4+ Th2 cells. The compound or salt was evaluated across a 2-log concentration range. Th2 cells were cultured in X-VIVO-15 media with human AB serum and supplemented with low dose IL-2 (30 IU/mL). The antibody panel that was used is listed below. All antibodies were obtained from Biolegend.
(§4) Description of Calculation for: (1) Expression of Cytokine following Stimulation (% X Positive among CD4+ T cells), and (2) % Normalized Reduction of Cytokine Expression From Baseline in CD4+ T Cells
(§5) The expression of IL-4 and IL-13 was measured based on positive gated fractions among CD4+ Th2 cells. The number is expressed as a positive percentage, determined based on the fluorescence-minus-one (FMO) control. The max percent is 100%. The normalized reduction value uses the vehicle control (water) to normalize against using the following percent change formula. (Cmpd: compound)

[2] = system: IL-4; test: Functional Th2-blocking activity: IL-4 expression in primary human Th2 cells (intracellular flow cytometry); format: cell-based; settings: primary human CD4+ Th2 cells; for % Normalized Reduction of Cytokine Expression From Baseline in CD4+ T Cells IL-4: normalized against vehicle control (water), 3 days co-culture, PMA/ionomycin 6 hours; for Expression of Cytokine following Stimulation (% X Positive among CD4+ T cells) IL-4: 3 days co-culture with compound, PMA/ionomycin stimulation 6 hours
Text: as §1, §2, §3, §4, §5

## COC(=O)c1sccc1-n1c(C)ccc1C [VI-3, methyl 3-(2,5-dimethyl-1H-pyrrol-1-yl)thiophene-2-carboxylate]
[1]
  Expression of Cytokine following Stimulation (% X Positive among CD4+ T cells) IL-13: C (C represents 14% to less than 18%)
  % Normalized Reduction of Cytokine Expression From Baseline in CD4+ T Cells IL-13: C (C represents 40% to less than 50%)
[2]
  % Normalized Reduction of Cytokine Expression From Baseline in CD4+ T Cells IL-4: B (B represents 15% to less than 20%)
  Expression of Cytokine following Stimulation (% X Positive among CD4+ T cells) IL-4: B (B represents 30% to less than 35%)

## CN1c2c(nc(N)[nH]c2=O)NCC1CNc1ccc(C(=O)NC(CCC(=O)O)C(=O)O)cc1.[Ca+2] (stereo not drawn) [VI-4, Levomefolate calcium, reference compound]
[1]
  Expression of Cytokine following Stimulation (% X Positive among CD4+ T cells) IL-13: C (C represents 14% to less than 18%)
  % Normalized Reduction of Cytokine Expression From Baseline in CD4+ T Cells IL-13: B (B represents 30% to less than 40%)
[2]
  % Normalized Reduction of Cytokine Expression From Baseline in CD4+ T Cells IL-4: B (B represents 15% to less than 20%)
  Expression of Cytokine following Stimulation (% X Positive among CD4+ T cells) IL-4: B (B represents 30% to less than 35%)

## Cc1ccc(C)n1-c1ccsc1C(=O)NC1CCCC1 [VI-5, N-cyclopenty1-3-(2,5-dimethy1-1H-pyrrol-1-yl)thiophene-2-carboxamide]
[1]
  Expression of Cytokine following Stimulation (% X Positive among CD4+ T cells) IL-13: C (C represents 14% to less than 18%)
  % Normalized Reduction of Cytokine Expression From Baseline in CD4+ T Cells IL-13: B (B represents 30% to less than 40%)
[2]
  % Normalized Reduction of Cytokine Expression From Baseline in CD4+ T Cells IL-4: B (B represents 15% to less than 20%)
  Expression of Cytokine following Stimulation (% X Positive among CD4+ T cells) IL-4: B (B represents 30% to less than 35%)

## Cn1nc(C(=O)NC(CCC(=O)O)C(=O)O)c2ccccc2c1=O (stereo not drawn) [VI-6, 2-[(3-methyl-4-oxo-3,4-dihydrophthalazin-1-yl)formamido]pentanedioic acid]
[1]
  Expression of Cytokine following Stimulation (% X Positive among CD4+ T cells) IL-13: C (C represents 14% to less than 18%)
  % Normalized Reduction of Cytokine Expression From Baseline in CD4+ T Cells IL-13: B (B represents 30% to less than 40%)
[2]
  % Normalized Reduction of Cytokine Expression From Baseline in CD4+ T Cells IL-4: A (A represents 0% to less than 15%)
  Expression of Cytokine following Stimulation (% X Positive among CD4+ T cells) IL-4: C (C represents 35% to less than 40%)

## CC1=NN(c2cccc(Cl)c2)C(=O)/C1=C\Nc1cccc2c1C(=O)c1ccccc1C2=O [VI-7, 1-({[1-(3-chlorophenyl)-3-methyl-5-oxo-1,5-dihydro-4H-pyrazol-4-ylidene]methyl}amino)anthra-9,10-quinone]
[1]
  Expression of Cytokine following Stimulation (% X Positive among CD4+ T cells) IL-13: C (C represents 14% to less than 18%)
  % Normalized Reduction of Cytokine Expression From Baseline in CD4+ T Cells IL-13: B (B represents 30% to less than 40%)
[2]
  % Normalized Reduction of Cytokine Expression From Baseline in CD4+ T Cells IL-4: D (D represents 25% or greater)
  Expression of Cytokine following Stimulation (% X Positive among CD4+ T cells) IL-4: B (B represents 30% to less than 35%)

## Cc1ccc(C)n1-c1ccsc1C(=O)N1CCOC(c2ccccc2)C1 (stereo not drawn) [VI-8, 4-[3-(2,5-dimethyl-1H-pyrrol-1-yl)thiophene-2-carbonyl]-2-phenylmorpholine]
[1]
  Expression of Cytokine following Stimulation (% X Positive among CD4+ T cells) IL-13: C (C represents 14% to less than 18%)
  % Normalized Reduction of Cytokine Expression From Baseline in CD4+ T Cells IL-13: C (C represents 40% to less than 50%)
[2]
  % Normalized Reduction of Cytokine Expression From Baseline in CD4+ T Cells IL-4: A (A represents 0% to less than 15%)
  Expression of Cytokine following Stimulation (% X Positive among CD4+ T cells) IL-4: C (C represents 35% to less than 40%)

## O=C(c1ccc(F)cc1F)C1(O)CCN(Cc2ccc3cnccc3c2)CC1 [VI-9, 4-(2,4-difluorobenzoyl)-1-[(isoquinolin-6-yl)methyl]piperidin-4-ol]
[1]
  Expression of Cytokine following Stimulation (% X Positive among CD4+ T cells) IL-13: C (C represents 14% to less than 18%)
  % Normalized Reduction of Cytokine Expression From Baseline in CD4+ T Cells IL-13: C (C represents 40% to less than 50%)
[2]
  % Normalized Reduction of Cytokine Expression From Baseline in CD4+ T Cells IL-4: D (D represents 25% or greater)
  Expression of Cytokine following Stimulation (% X Positive among CD4+ T cells) IL-4: A (A represents 0% to less than 30%)

## Cc1ccc(CCNC(=O)c2ccc3c(=O)n(-c4ccc(C)cc4)c(=O)[nH]c3c2)cc1 [VI-10, 3-(4-methylpheny1)-N-[2-(4-methylphenyl)ethyl]-2,4-dioxo-1,2,3,4-tetrahydroquinazoline-7-carboxamide]
[1]
  Expression of Cytokine following Stimulation (% X Positive among CD4+ T cells) IL-13: C (C represents 14% to less than 18%)
  % Normalized Reduction of Cytokine Expression From Baseline in CD4+ T Cells IL-13: B (B represents 30% to less than 40%)
[2]
  % Normalized Reduction of Cytokine Expression From Baseline in CD4+ T Cells IL-4: C (C represents 20% to less than 25%)
  Expression of Cytokine following Stimulation (% X Positive among CD4+ T cells) IL-4: B (B represents 30% to less than 35%)

## O=C(N/N=C/c1cccc(OCc2ccccc2)c1)c1cc2ccccc2cc1O [VI-11, N′-[3-(benzyloxy)benzylidene]-3-hydroxy-2-naphthohydrazide]
[1]
  Expression of Cytokine following Stimulation (% X Positive among CD4+ T cells) IL-13: D (D represents 18% or greater)
  % Normalized Reduction of Cytokine Expression From Baseline in CD4+ T Cells IL-13: A (A represents 0% to less than 30%)
[2]
  % Normalized Reduction of Cytokine Expression From Baseline in CD4+ T Cells IL-4: A (A represents 0% to less than 15%)
  Expression of Cytokine following Stimulation (% X Positive among CD4+ T cells) IL-4: D (D represents 40% or greater)

## COc1ccc(-c2cc(=O)c3c(O)cc(O[C@@H]4O[C@H](CO)[C@@H](O)[C@H](O)[C@H]4O)cc3o2)cc1O [VI-12, Diosmetin-7-O-beta-D-glucopyranoside]
[1]
  Expression of Cytokine following Stimulation (% X Positive among CD4+ T cells) IL-13: A (A represents 0% to less than 10%)
  % Normalized Reduction of Cytokine Expression From Baseline in CD4+ T Cells IL-13: D (D represents 50% or greater)
[2]
  % Normalized Reduction of Cytokine Expression From Baseline in CD4+ T Cells IL-4: D (D represents 25% or greater)
  Expression of Cytokine following Stimulation (% X Positive among CD4+ T cells) IL-4: A (A represents 0% to less than 30%)

## O=C(Oc1ccc(OC(=O)c2ccc3c(c2)C(=O)OC3=O)cc1)c1ccc2c(c1)C(=O)OC2=O [VI-13, 4-(1,3-dioxo-1,3-dihydro-2-benzofuran-5-carbonyloxy)phenyl 1,3-dioxo-1,3-dihydro-2-benzofuran-5-carboxylate]
[1]
  Expression of Cytokine following Stimulation (% X Positive among CD4+ T cells) IL-13: C (C represents 14% to less than 18%)
  % Normalized Reduction of Cytokine Expression From Baseline in CD4+ T Cells IL-13: B (B represents 30% to less than 40%)
[2]
  % Normalized Reduction of Cytokine Expression From Baseline in CD4+ T Cells IL-4: C (C represents 20% to less than 25%)
  Expression of Cytokine following Stimulation (% X Positive among CD4+ T cells) IL-4: B (B represents 30% to less than 35%)

## O=C1Cc2cc(-c3csc(Cc4ccc(F)cc4)n3)cc3c2N1CCC3 [VI-14, 8-(2-(4-fluorobenzyl)thiazol-4-yl)-5,6-dihydro-4H-pyrrolo[3,2,1-ij]quinolin-2(1H)-one]
[1]
  Expression of Cytokine following Stimulation (% X Positive among CD4+ T cells) IL-13: B (B represents 10% to less than 14%)
  % Normalized Reduction of Cytokine Expression From Baseline in CD4+ T Cells IL-13: D (D represents 50% or greater)
[2]
  % Normalized Reduction of Cytokine Expression From Baseline in CD4+ T Cells IL-4: C (C represents 20% to less than 25%)
  Expression of Cytokine following Stimulation (% X Positive among CD4+ T cells) IL-4: B (B represents 30% to less than 35%)
